13 compounds from patent US20250282768A1 (Janssen Pharmaceutica NV, priority 2022, published 2025) can be followed below.

SMILES strings stand for the structures.

This assay has as its system p-IKKa levels in L363 (NIK translocated multiple myeloma) cells. Kind of assay: Assay 2: Effect of compounds on p-IKKa levels in L363 (NIK translocated multiple myeloma) cells. The class given is cell-based. The conditions noted are these: Homo sapiens, L-363, 6 h, read-out: Assay 2 IC50 (nM), p-IKKa (Ser 176/180) in BAFF stimulated L363 cells with MG132, 6 h; average if tested more than once. The procedure: Assay 2: Effect of Compounds on p-IKKa Levels in L363 (NIK Translocated Multiple Myeloma) Cells
All compounds tested were dissolved and serially diluted in DMSO, 1:3 dilution for 11 points in an Echo compatible plate. 100% DMSO was added to columns 12 and 24 of the plate to serve as high and low signal controls. This compound plate was used to spot 20 nL of compound or DMSO into a Greiner 384 well TC plate (781080). The final DMSO concentration was 0.3% (v/v) in cell assays. Human L363 cells (ATCC) were cultured in RPM11640 medium supplemented with GlutaMax, non-essential amino acids, sodium pyruvate and 10% fetal bovine serum. Cells were routinely maintained at densities of 0.2×10^6 cells per ml—2×10^6 cells per mL at 37° C. in a humidified 5% CO2 atmosphere incubator. Cells were passaged twice a week splitting back to obtain the low density. The day before the assay, cells were washed twice in HBSS (Hank's Balanced Salt Solution), resuspended in Dulbecco's Modified Eagle Medium (DMEM)+0.5% IgG and protease free BSA (Jackson Immuno Research Laboratories), +/−250 ng/ml recombinant human B-cell activating factor (BAFF/BLyS/TNFSF13B) and incubated overnight at 37° C. in a humidified 5% CO2 atmosphere (bulk stimulation with or without BAFF). The next day, the cell concentration was adjusted to 1×10^7 cells/ml in DMEM+/−250 ng/ml BAFF +/−10 μM MG132 and plated at 10 μl/well into compound or DMSO spotted 384 well TC plates. Seeded cells were incubated at 37° C. in a humidified 5% CO2 atmosphere for 6 h. After 6 h, the plates were removed from the incubator and cell lysis was achieved by the addition of 2.5 μl 5×lysis buffer containing protease and phosphatase inhibitors, followed by shaking on a plate shaker at room temperature for 15 min. At the end of this incubation, lysed cells were sequentially treated and incubated with acceptor and donor bead mixes according to the manufacturer's protocol for a 1 plate/2-incubation suspension cell assay (AlphaLISA SureFire Ultra p-IKKa (Ser 176/180) Assay Kit (Perkin Elmer). Plates were read using an EnVision Multilabel Plate Reader (Perkin Elmer). Within an experiment, a concentration response curve for each compound was run in duplicate. The signal obtained in the test wells was normalized using high signal (BAFF stimulated cells, DMSO, MG132) and low signal (unstimulated cells, DMSO) controls. To determine the IC50, a sigmoidal curve was fitted to the plot of % inhibition versus Log10 compound concentration.

Turning to `C[C@H](Nc1nccc(-c2cccc(-c3cc([C@]4(O)CCN(C)C4=O)on3)n2)n1)c1cnc2ccccn12` (single isomer, unassigned) [Example 161], the IC50 was in the range of 50 to 500 nM.
As to `CC(C)[C@@H](Nc1nccc(-c2cccc(-c3cc([C@]4(O)CCN(C)C4=O)on3)n2)n1)c1cnn(C)c1` (single isomer, unassigned) [Example 162], the IC50 is more than 500 nM.
As to `CC(C)[C@H](Nc1nccc(-c2cccc(-c3cc([C@]4(O)CCN(C)C4=O)on3)n2)n1)c1cnn(C)c1` (single isomer, unassigned) [Example 163], the IC50 fell in the range of 50 to 500 nM.
As for `C[C@@H](Nc1nccc(-c2cccc(-c3cc([C@]4(O)CCN(C)C4=O)on3)n2)n1)c1ccn2ccnc2c1` (single isomer, unassigned) [Example 164], the figure is more than 500 nM.
As for `C[C@H](Nc1nccc(-c2cccc(-c3cc([C@]4(O)CCN(C)C4=O)on3)n2)n1)c1ccn2ccnc2c1` (single isomer, unassigned) [Example 165], the figure is 50 to 500 nM.
In the case of `CN1CC[C@@](O)(c2cc(-c3cccc(-c4ccnc(Nc5ccn(C)n5)n4)n3)n(C)n2)C1=O` (single isomer, unassigned) [Example 166, (*R)-3-Hydroxy-1-methyl-3-(1-methyl-5-(6-(2-((1-methyl-1H-pyrazol-3-yl)amino)pyrimidin-4-yl)pyridin-2-yl)-1H-pyrazol-3-yl)pyrrolidin-2-one], the IC50 was more than 500 nM.
The figure for `COc1nn(CC(F)F)cc1Nc1nccc(-c2cccc(-c3cnc([C@]4(O)CCN(C)C4=O)s3)n2)n1` (single isomer, unassigned) [Example 188, (*R)-3-(5-(6-(2-((1-(2,2-Difluoroethyl)-3-methoxy-1H-pyrazol-4-yl)amino)pyrimidin-4-yl)pyridin-2-yl)thiazol-2-yl)-3-hydroxy-1-methylpyrrolidin-2-one] is less than 50 nM; for `COc1nn(CC(F)F)cc1Nc1nccc(-c2cccc(-c3cc([C@@]4(O)CCN(C)C4=O)n[nH]3)n2)n1` (single isomer, unassigned) [Example 189, (*R)-3-(5-(6-(2-((1-(2,2-Difluoroethyl)-3-methoxy-1H-pyrazol-4-yl)amino)pyrimidin-4-yl)pyridin-2-yl)-1H-pyrazol-3-yl)-3-hydroxy-1-methylpyrrolidin-2-one] it is less than 50 nM; for `CC1OCCn2ncc(Nc3nccc(-c4cccc(-c5cc([C@]6(O)CCN(C)C6=O)on5)n4)n3)c21` (single isomer, unassigned) [Example 195, (R)-3-Hydroxy-1-methyl-3-(3-(6-(2-(((*R)-4-methyl-6,7-dihydro-4H-pyrazolo[5,1-c][1,4]oxazin-3-yl)amino)pyrimidin-4-yl)pyridin-2-yl)isoxazol-5-yl)pyrrolidin-2-one] it is less than 50 nM.
As for `CN1CC[C@@](O)(c2cc(-c3cccc(-c4ccnc(Nc5cnn(C)c5C(F)F)n4)n3)no2)C1=O` (single isomer, unassigned) [Example 198, (*R)-3-(3-(6-(2-((5-(Difluoromethyl)-1-methyl-1H-pyrazol-4-yl)amino)pyrimidin-4-yl)pyridin-2-yl)isoxazol-5-yl)-3-hydroxy-1-methylpyrrolidin-2-one], the figure is less than 50 nM.
The figure for `COCCn1ccc(Nc2nccc(-c3cccc(-c4cc([C@]5(O)CCN(C)C5=O)on4)n3)n2)n1` (single isomer, unassigned) [Example 199, (*R)-3-Hydroxy-3-(3-(6-(2-((1-(2-methoxyethyl)-1H-pyrazol-3-yl)amino)pyrimidin-4-yl)pyridin-2-yl)isoxazol-5-yl)-1-methylpyrrolidin-2-one] is less than 50 nM.
For the compound `CN1CC[C@H](n2cc(Nc3nccc(-c4cccc(-c5cc([C@]6(O)CCN(C)C6=O)on5)n4)n3)cn2)[C@@H](F)C1` (single isomer, unassigned) [Example 201], the IC50 was less than 50 nM.
As for `CN1CC[C@@H](n2cc(Nc3nccc(-c4cccc(-c5cc([C@]6(O)CCN(C)C6=O)on5)n4)n3)cn2)[C@H](F)C1` (single isomer, unassigned) [Example 202], the figure is less than 50 nM.
